The source of these data is patent US9809623B2, “α4β7 peptide monomer and dimer antagonists” (Protagonist Therapeutics, Inc., priority 2014, dated 2017).

The target in one series is α4β7 (Homo sapiens, UniProt P13612+P26010). The experiment in a line: α4β7-MAdCAM Cell Adhesion Assay (RPMI 8866 human cells). The class given is cell-based. Details: host or cells: RPMI 8866 human B lymphoblastoid cells. Particulars: Table 3-B, Potency (α4β7); range classes; read-out: α4β7 cell (Hu) IC50. An outline of the steps:
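Adhesion read-out: MTT absorbance at 570 nm minus no-cell wells, after three washes. Plates coated with rh MAdCAM-1/Fc received peptide dilutions plus 200,000 RPMI 8866 cells in Mn2+ (1 mM)-supplemented DMEM, 0.1% BSA, HEPES pH 7, incubated 30-45 min, 37 °C.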

Series [1] can be described thus: Simulated Intestinal Fluid (SIF) Stability Assay. The series is classed as in vitro ADME, porcine. To be noted: pig, pH 6.5, Table 3-B. The method, then: Studies were carried out in simulated intestinal fluid (SIF) to evaluate intestinal stability of the peptide molecules of the instant invention. To prepare the SIF reagent, blank FASSIF was prepared by dissolving 0.348 g NaOH, 3.954 g sodium phosphate monobasic monohydrate and 6.186 g NaCl in a final volume of 1 liter water (final pH=6.5). To this solution, 24 g porcine pancreatin (Sigma catalog P7545) was added and stirred for 30 minutes (final pancreatin concentration is 2.4%). The solution was filtered through a cheese cloth and a No. 1 Whatman filter, and 10 ml aliquots were stored at −70° C. To run the reaction, a 10 ml aliquot was thawed at 37° C., and 125 ul aliquots were removed and mixed with an equal volume of blank FASSIF. The peptide stock solution (10 mM in 100% DMSO) was diluted 75-fold in blank FASSIF. A 50 μl aliquot of the diluted peptide was combined with 125 μl pancreatin (2.4%) and 125 μl blank FASSIF to yield final concentrations of 1% pancreatin and 22 μM peptide. The reactions were incubated at 37° C., and at various time points 50 μl aliquots were removed and added to 200 μl of quench solution containing 50% acetonitrile, 50% methanol, 5% formic acid, and 1 μg/ml internal standard. The quenched samples were centrifuged at 10,000 rpm for 10 minutes, and the supernatants were analyzed by LCMS/MS. The percent remaining at each time point was calculated based on the peak area response ratio of test to compound to internal standard. Half-lives were calculated by fitting to a first-order exponential decay equation using GraphPad.

The mark [2] stands for this setting: simulated intestinal fluid (SIF) with 1% porcine pancreatin, > means experiment was stopped at that time and half life was not reached, read-out: Stabilty SIF t1/2.
Where [3] appears, read: simulated intestinal fluid (SIF) with porcine pancreatin, > means experiment was stopped at that time and half life was not reached, read-out: Stabilty SIF t1/2.
The mark [4] stands for this setting: simulated intestinal fluid (SIF) with porcine pancreatin, alone or in parentheses after >360, read-out: Stabilty SIF t1/2, in hr (converted).

Structures are written as SMILES. Read-outs that look alike come from different tables or passages of the source. Numbered stars: 1 amine (or outer) side, 2 acyl side, 3 side chain; on linkers, the order of the positions; unused ones are H or OH. Bridge positions count the residues as written; N and C are the ends. Square brackets hold non-standard residues; d marks the D form. Peptide text beside a SMILES is read from it. I, II: the chains in the order shown. Phe(4-CF3) = N[C@@H](Cc1ccc(C(F)(F)F)cc1)C(=O)O; Phe(4-tBu) = CC(C)(C)c1ccc(C[C@H](N)C(=O)O)cc1; Diglycolyl = O=C(COCC(=O)[*:2])[*:1]; NMeR = CN[C@@H](CCCNC(=N)N)C(=O)O; β3hE = N[C@@H](CCC(=O)O)CC(=O)O; NMeK = CN[C@@H](CCCCN)C(=O)O; Pen = CC(C)(S)[C@H](N)C(=O)O A value given as a limit tells only on which side of the number the result lay.

Sequence of α4β7 (P13612 34-1032): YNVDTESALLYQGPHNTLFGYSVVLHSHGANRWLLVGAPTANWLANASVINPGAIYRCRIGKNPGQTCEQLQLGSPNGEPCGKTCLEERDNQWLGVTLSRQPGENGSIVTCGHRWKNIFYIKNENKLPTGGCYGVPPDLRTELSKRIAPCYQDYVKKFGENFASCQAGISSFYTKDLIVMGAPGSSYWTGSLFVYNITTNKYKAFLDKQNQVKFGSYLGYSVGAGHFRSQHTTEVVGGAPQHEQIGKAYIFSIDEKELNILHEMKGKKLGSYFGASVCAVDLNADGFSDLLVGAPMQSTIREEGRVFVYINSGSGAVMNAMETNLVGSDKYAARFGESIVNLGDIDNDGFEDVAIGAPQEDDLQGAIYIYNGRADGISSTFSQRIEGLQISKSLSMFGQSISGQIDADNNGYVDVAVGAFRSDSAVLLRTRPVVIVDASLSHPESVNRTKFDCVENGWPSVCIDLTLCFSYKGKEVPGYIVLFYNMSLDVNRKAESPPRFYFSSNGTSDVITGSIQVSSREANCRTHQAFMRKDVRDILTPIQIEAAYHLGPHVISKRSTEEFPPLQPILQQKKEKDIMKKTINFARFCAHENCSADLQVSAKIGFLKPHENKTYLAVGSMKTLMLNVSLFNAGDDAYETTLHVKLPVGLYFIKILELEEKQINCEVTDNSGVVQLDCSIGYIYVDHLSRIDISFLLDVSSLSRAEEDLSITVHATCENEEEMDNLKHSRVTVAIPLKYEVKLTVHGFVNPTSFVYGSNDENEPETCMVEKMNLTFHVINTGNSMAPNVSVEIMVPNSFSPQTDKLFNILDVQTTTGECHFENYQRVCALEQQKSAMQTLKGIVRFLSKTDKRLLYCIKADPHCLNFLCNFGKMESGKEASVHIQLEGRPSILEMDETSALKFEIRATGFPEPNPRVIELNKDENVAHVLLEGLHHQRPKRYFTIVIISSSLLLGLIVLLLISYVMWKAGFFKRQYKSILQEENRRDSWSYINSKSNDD
Sequence of α4β7 (P26010 20-798): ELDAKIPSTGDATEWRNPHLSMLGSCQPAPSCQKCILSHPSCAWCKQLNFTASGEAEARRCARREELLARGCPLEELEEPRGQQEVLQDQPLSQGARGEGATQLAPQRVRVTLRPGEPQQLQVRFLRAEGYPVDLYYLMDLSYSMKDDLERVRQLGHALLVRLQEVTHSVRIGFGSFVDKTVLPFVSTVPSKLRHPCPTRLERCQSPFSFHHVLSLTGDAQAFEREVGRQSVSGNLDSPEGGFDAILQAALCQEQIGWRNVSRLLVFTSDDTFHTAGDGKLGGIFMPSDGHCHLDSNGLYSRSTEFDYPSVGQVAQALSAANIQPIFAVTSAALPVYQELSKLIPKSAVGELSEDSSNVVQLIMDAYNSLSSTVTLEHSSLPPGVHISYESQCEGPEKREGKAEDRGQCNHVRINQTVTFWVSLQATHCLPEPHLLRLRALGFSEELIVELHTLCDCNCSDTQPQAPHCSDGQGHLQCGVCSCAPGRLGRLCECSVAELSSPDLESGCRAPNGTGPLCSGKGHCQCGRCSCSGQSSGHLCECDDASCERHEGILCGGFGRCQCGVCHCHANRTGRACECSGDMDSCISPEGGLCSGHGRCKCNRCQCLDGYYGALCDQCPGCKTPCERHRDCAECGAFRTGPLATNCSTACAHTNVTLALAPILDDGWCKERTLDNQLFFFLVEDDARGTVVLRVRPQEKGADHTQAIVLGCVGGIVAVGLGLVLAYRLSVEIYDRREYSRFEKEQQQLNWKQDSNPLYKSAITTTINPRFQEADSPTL

Consider `CC(=O)N[C@@H]1C(=O)N(C)[C@@H](CCCNC(=N)N)C(=O)N[C@@H](CO)C(=O)N[C@@H](CC(=O)O)C(=O)N[C@@H]([C@@H](C)O)C(=O)N[C@@H](CC(C)C)C(=O)N[C@H](C(=O)N[C@@H](Cc2c[nH]c3ccccc23)C(=O)N[C@@H](CCC(=O)O)CC(=O)N[C@H](CCCCNC(=O)COCC(=O)NCCCC[C@@H](NC(=O)C[C@H](CCC(=O)O)NC(=O)[C@H](Cc2c[nH]c3ccccc23)NC(=O)[C@H]2NC(=O)[C@H](CC(C)C)NC(=O)[C@H]([C@@H](C)O)NC(=O)[C@H](CC(=O)O)NC(=O)[C@H](CO)NC(=O)[C@H](CCCNC(=N)N)N(C)C(=O)[C@@H](NC(C)=O)C(C)(C)SSC2(C)C)C(N)=O)C(N)=O)C(C)(C)SSC1(C)C` [compound 1] (I: Ac-[Pen][NMeR]SDTL[Pen]W[β3hE][dK]-NH2 / II: Ac-[Pen][NMeR]SDTL[Pen]W[β3hE][dK]-NH2; disulfide I:1-I:7, II:1-II:7; linker I:10-II:10 via Diglycolyl), for which the IC50 – broadly, the concentration that gives 50% inhibition – on α4β7 lay in the range of 0.05 to 0.1 µM. Moreover, the half-life at 22 μM in series [1] (setting [2]) was greater than 3 h. For `CC(=O)N[C@@H]1C(=O)N(C)[C@@H](CCCNC(=N)N)C(=O)N[C@@H](CO)C(=O)N[C@@H](CC(=O)O)C(=O)N[C@@H]([C@@H](C)O)C(=O)N[C@@H](CC(C)C)C(=O)N[C@H](C(=O)N[C@H](Cc2ccccc2)C(=O)N[C@H](CCC(=O)O)C(=O)N[C@H](CCCCNC(=O)COCC(=O)NCCCC[C@@H](NC(=O)[C@@H](CCC(=O)O)NC(=O)[C@@H](Cc2ccccc2)NC(=O)[C@H]2NC(=O)[C@H](CC(C)C)NC(=O)[C@H]([C@@H](C)O)NC(=O)[C@H](CC(=O)O)NC(=O)[C@H](CO)NC(=O)[C@H](CCCNC(=N)N)N(C)C(=O)[C@@H](NC(C)=O)C(C)(C)SSC2(C)C)C(N)=O)C(N)=O)C(C)(C)SSC1(C)C` [compound 2] (I: Ac-[Pen][NMeR]SDTL[Pen][dF][dE][dK]-NH2 / II: Ac-[Pen][NMeR]SDTL[Pen][dF][dE][dK]-NH2; disulfide I:1-I:7, II:1-II:7; linker I:10-II:10 via Diglycolyl), in that order: 0.1 to 0.5 µM and greater than 3 h. In the case of `CC(=O)N[C@@H]1C(=O)N(C)[C@@H](CCCNC(=N)N)C(=O)N[C@@H](CO)C(=O)N[C@@H](CC(=O)O)C(=O)N[C@@H]([C@@H](C)O)C(=O)N[C@@H](CC(C)C)C(=O)N[C@H](C(=O)N[C@@H](Cc2ccc(C(F)(F)F)cc2)C(=O)N[C@H](CCC(=O)O)C(=O)N[C@H](CCCCNC(=O)COCC(=O)NCCCC[C@@H](NC(=O)[C@@H](CCC(=O)O)NC(=O)[C@H](Cc2ccc(C(F)(F)F)cc2)NC(=O)[C@H]2NC(=O)[C@H](CC(C)C)NC(=O)[C@H]([C@@H](C)O)NC(=O)[C@H](CC(=O)O)NC(=O)[C@H](CO)NC(=O)[C@H](CCCNC(=N)N)N(C)C(=O)[C@@H](NC(C)=O)C(C)(C)SSC2(C)C)C(N)=O)C(N)=O)C(C)(C)SSC1(C)C` [compound 3] (I: Ac-[Pen][NMeR]SDTL[Pen][Phe(4-CF3)][dE][dK]-NH2 / II: Ac-[Pen][NMeR]SDTL[Pen][Phe(4-CF3)][dE][dK]-NH2; disulfide I:1-I:7, II:1-II:7; linker I:10-II:10 via Diglycolyl), in series [1] (setting [3]), the half-life at 22 μM was greater than 3 h. Still for that read-out and setting: the result for `CC(=O)N[C@@H]1CCCCNC(=O)COCC(=O)NCCCC[C@@H](NC(C)=O)C(=O)N[C@H]2CSSC[C@H](NC(=O)[C@H](CC(C)C)NC(=O)[C@H]([C@@H](C)O)NC(=O)[C@H](CC(=O)O)NC(=O)[C@H](CO)NC(=O)[C@H](CCCNC(=N)N)N(C)C2=O)C(=O)N[C@@H](Cc2c[nH]c3ccccc23)C(=O)N[C@@H](C(N)=O)CCCCNC(=O)COCC(=O)NCCCC[C@H](C(N)=O)NC(=O)[C@H](Cc2c[nH]c3ccccc23)NC(=O)[C@@H]2CSSC[C@H](NC1=O)C(=O)N(C)[C@@H](CCCNC(=N)N)C(=O)N[C@@H](CO)C(=O)N[C@@H](CC(=O)O)C(=O)N[C@@H]([C@@H](C)O)C(=O)N[C@@H](CC(C)C)C(=O)N2` [compound 5] (I: Ac-[dK]C[NMeR]SDTLCW[dK]-NH2 / II: Ac-[dK]C[NMeR]SDTLCW[dK]-NH2; linker I:1-II:1, I:10-II:10 via Diglycolyl; disulfide I:2-I:8, II:2-II:8) reads 0.1 h. Consider `CC(=O)N[C@@H]1C(=O)N(C)[C@@H](CCCNC(=N)N)C(=O)N[C@@H](CO)C(=O)N[C@@H](CC(=O)O)C(=O)N[C@@H]([C@@H](C)O)C(=O)N[C@@H](CC(C)C)C(=O)N[C@H](C(=O)N[C@@H](Cc2ccc(C(C)(C)C)cc2)C(=O)N[C@@H](CCC(=O)O)C(=O)N[C@H](CCCCNC(=O)COCC(=O)NCCCC[C@@H](NC(=O)[C@H](CCC(=O)O)NC(=O)[C@H](Cc2ccc(C(C)(C)C)cc2)NC(=O)[C@H]2NC(=O)[C@H](CC(C)C)NC(=O)[C@H]([C@@H](C)O)NC(=O)[C@H](CC(=O)O)NC(=O)[C@H](CO)NC(=O)[C@H](CCCNC(=N)N)N(C)C(=O)[C@@H](NC(C)=O)C(C)(C)SSC2(C)C)C(N)=O)C(N)=O)C(C)(C)SSC1(C)C` [compound 131] (I: Ac-[Pen][NMeR]SDTL[Pen][Phe(4-tBu)]E[dK]-NH2 / II: Ac-[Pen][NMeR]SDTL[Pen][Phe(4-tBu)]E[dK]-NH2; disulfide I:1-I:7, II:1-II:7; linker I:10-II:10 via Diglycolyl), for which the results for the half-life at 22 μM in series [1] (setting [3]) and in series [1] (setting [4]) were greater than 6 h and 9 h, respectively. Regarding `CC(=O)N[C@@H]1C(=O)N(C)[C@@H](CCCNC(=N)N)C(=O)N[C@@H](CO)C(=O)N[C@@H](CC(=O)O)C(=O)N[C@@H]([C@@H](C)O)C(=O)N[C@@H](CC(C)C)C(=O)N[C@H](C(=O)N[C@@H](Cc2ccc(C(C)(C)C)cc2)C(=O)N[C@@H](CCC(=O)O)C(=O)N(C)[C@@H](CCCCNC(=O)COCC(=O)NCCCC[C@@H](C(N)=O)N(C)C(=O)[C@H](CCC(=O)O)NC(=O)[C@H](Cc2ccc(C(C)(C)C)cc2)NC(=O)[C@H]2NC(=O)[C@H](CC(C)C)NC(=O)[C@H]([C@@H](C)O)NC(=O)[C@H](CC(=O)O)NC(=O)[C@H](CO)NC(=O)[C@H](CCCNC(=N)N)N(C)C(=O)[C@@H](NC(C)=O)C(C)(C)SSC2(C)C)C(N)=O)C(C)(C)SSC1(C)C` [compound 133] (I: Ac-[Pen][NMeR]SDTL[Pen][Phe(4-tBu)]E[NMeK]-NH2 / II: Ac-[Pen][NMeR]SDTL[Pen][Phe(4-tBu)]E[NMeK]-NH2; disulfide I:1-I:7, II:1-II:7; linker I:10-II:10 via Diglycolyl), the half-life at 22 μM in series [1] (setting [3]) is greater than 6 h; in series [1] (setting [4]), 11 h.

`CC(=O)N[C@@H]1C(=O)N(C)[C@@H](CCCNC(=N)N)C(=O)N[C@@H](CO)C(=O)N[C@@H](CC(=O)O)C(=O)N[C@@H]([C@@H](C)O)C(=O)N[C@@H](CC(C)C)C(=O)N[C@H](C(=O)N[C@@H](Cc2ccc(C(C)(C)C)cc2)C(=O)N[C@@H](CCC(=O)O)CC(=O)N[C@H](CCCCNC(=O)CN(CC(=O)NCCCC[C@@H](NC(=O)C[C@H](CCC(=O)O)NC(=O)[C@H](Cc2ccc(C(C)(C)C)cc2)NC(=O)[C@H]2NC(=O)[C@H](CC(C)C)NC(=O)[C@H]([C@@H](C)O)NC(=O)[C@H](CC(=O)O)NC(=O)[C@H](CO)NC(=O)[C@H](CCCNC(=N)N)N(C)C(=O)[C@@H](NC(C)=O)C(C)(C)SSC2(C)C)C(N)=O)C(=O)CCNC(=O)c2ccc(-c3c4ccc(=N)c(S(=O)(=O)O)c-4oc4c(S(=O)(=O)O)c(N)ccc34)c(C(=O)O)c2)C(N)=O)C(C)(C)SSC1(C)C` [compound 182]: the half-life at 22 μM in series [1] (setting [3]) is greater than 3 h.
